Data from US20250195412A1, “PHARMACEUTICAL FORMULATIONS OF R-KETAMINE” (priority 2022, published 2025).
In brackets after ≈: the same amount, converted by molar mass. Several values for one entry are separate records, joined by “and”; a condition that tells them apart may be missing. Equal entries are not always repeated. Entries after “also recorded” stand apart in the source; their conditions may differ.

Columns and labels:
[1] = Hygroscopicity, DVS experiments; type: physicochemical; conditions: between 50% RH to 90% RH in DVS experiments
[2] = Cyclodextrin inclusion: API content of filtered solution by HPLC; type: physicochemical; conditions: nominal 100 mg/ml (86.96 mg/ml free base)
Experimental: (§1) The effect of hydroxypropyl β-cyclodextrin (HPB) on the solubility of R-ketamine at different pH values was investigated. Varied factors were pH of the solution and the concentration of HPB. Response factors were tonicity, which was determined by freezing point depression, and API content, which was measured by HPLC, of a filtered (0.22 μm) solution.
(§2) After dissolving the active ingredient (100 mg/ml, 86.96 mg/ml free base), a defined amount of HPB was added. After complete solution of the two components, the target pH was adjusted with sodium hydroxide solution (1 M). The resulting solution was filtered through a syringe filter (0.22 μm) and analyzed by HPLC and freezing point depression. A separate protocol was prepared for each individual experiment.

[3] = Cyclodextrin inclusion: tonicity by freezing point depression; type: physicochemical
Experimental: as §1, §2

[4] = Cosolvent screening: assay of filtered sample by HPLC; type: physicochemical
Experimental: (§3) For cosolvent screening, a set of possible candidates was identified. Specifically, 5% sulfobutyl-ether-β-cyclodextrin (SBE7), polyethylene glycol 400 (PEG 400), glycerol, propylene glycol, and 5% polysorbate 80 were to be screened at pH 5 and 6. Unless otherwise specified, cosolvents were screened at 20% and 50% (m/V). As a control, the solubility of R-ketamine in water was studied at pH 5 and 6.
(§4) The test solution consisting of water for injection. The respective cosolvent was prepared and the active substance was dissolved to a nominal concentration of 100 mg/ml (equaling 86.96 mg/ml free base). The pH was then adjusted to pH 5 with 1N NaOH and a sample was obtained under filtration (0.22 μm). Thereafter, the pH was further increased to pH 6 and another sample was taken (also filtered). Both samples were analyzed for assay and tonicity by HPLC and freezing point depression.
(§5) • Batch size: 90 g/pH set at end of compounding (1N NaOH/1N HCl)

[5] = Cosolvent screening: tonicity by freezing point depression; type: physicochemical
Experimental: as §3, §4, §5

[6] = Citrate buffer: content of filtered sample by HPLC, visual precipitation; type: physicochemical
Experimental: (§6) One finding from the previous Examples was that there is a range between pH 5 and 6 in which 60 mg/ml API can be dissolved. Strong precipitation of the free base only occurs above a pH of 5.9 according to the observation. Based on this observation, it was decided to investigate two compendial buffer systems (citrate and phosphate buffer) for their ability to hold 60 mg/ml of R-ketamine in solution and stabilize the formulation against pH shifts. Another change was that the pH adjustment was done with 0.15 N NaOH instead of 1 N NaOH in the following experiments. This change was underdone because there were concerns that the very alkaline microenvironment around the drops of sodium hydroxide solution would lead to the formation of flakes that were difficult to dissolve.
(§7) The ingredients for a 20 mM buffer and the appropriate amount of R-ketamine HCl (60 mg/ml, equaling 52.2 mg/ml free base) were weighed together and diluted in water for injection. Subsequently, the pH was adjusted, e.g. to 5.2. After filling up to the target volume, the mixture was stirred for a defined time and a sample was obtained under filtration (0.22 μm). This sample was analyzed for content by HPLC and for tonicity by freezing point depression.

[7] = Citrate buffer: tonicity by freezing point depression; type: physicochemical
Experimental: as §6, §7

[8] = Phosphate buffer: content of filtered sample by HPLC, visual precipitation; type: physicochemical
Experimental: as §7
(§8) Based on the previous results from the citrate buffer series experiment, the experiments with the phosphate buffer could be limited to pH 5.8. The nominal concentrations 60 and 70 mg/ml were investigated.
(§9) The solution was prepared and tested as described for the citrate buffer.

[9] = Phosphate buffer: tonicity by freezing point depression; type: physicochemical
Experimental: as §7, §8, §9

[10] = Orientative stability examination of phosphate-buffered formulation, room temperature storage; type: physicochemical; conditions: 60 mg/mL in phosphate buffer pH 5.8, room temperature, two weeks
[11] = Initial tests with maleic acid buffering: dissolution behaviour and pH; type: physicochemical
Experimental: Due to its ability to act as a buffer in the acidic to neutral range, a 0.02 M aqueous maleic acid solution was proposed as the base formulation. The aim was to investigate the dissolving capacity for R-ketamine in the concentration range of 60, 80 and 100 mg/ml at pH 5.5 and 5.7 (after the feasibility test with a pH of 5.8 had to be considered as failed) and the stability of the formulations in a study for four weeks.
In an initial feasibility test, the dissolution behaviour of R-ketamine was investigated in the presence of maleic acid. Pure water was used as a comparison. In an aqueous solution of 60 mg/ml R-ketamine without buffering, a pH of 4.65 was obtained. If the same amount of R-ketamine was dissolved in a 0.02 M maleic acid buffer adjusted to pH 5.75, the pH decreased to a value of 5.38.

[12] = pH dependence of solubility / precipitation of the free base in water; type: physicochemical
Experimental: From pH 5.5, the free base consequently precipitates, if this is not prevented by the addition of suitable excipients.
as §6
The solubility of R-ketamine is strongly pH dependent. In the acidic pH range, the active ingredient is readily soluble, while precipitation occurs at pH values greater than 5.7-5.9. A careful choice of formulation parameters allows the requirements of the application route to be reconciled with the dissolution behavior of the active ingredient. The way in which the pH is adjusted also has a major influence. By using low-concentration alkalis, the formation of highly alkaline microenvironments around the dropping point could be avoided. This prevents the formation of active ingredient flocs that are difficult to dissolve again.

[13] = pH 5.5
[14] = pKa (general properties)
[15] = Log P (general properties)
[16] = Solubility profile in solvents
[17] = Cyclodextrin (HPB) 20 %, pH 4.5
[18] = Cyclodextrin (HPB) 20 %, pH 7.5
[19] = 60 mg/ml in 20 mM citrate buffer, pH 5.4
[20] = 60 mg/ml in 20 mM citrate buffer, pH 5.6
[21] = 60 mg/ml in 20 mM citrate buffer, pH 5.8
[22] = 70 mg/ml (60.9 mg/ml free base) in citrate buffer, pH 5.8
[23] = phosphate buffer pH 5.8, nominal 60 mg/ml (52.2 mg/ml free base)
[24] = phosphate buffer pH 5.8, nominal 70 mg/ml (60.9 mg/ml free base)

CN[C@@]1(c2ccccc2Cl)CCCCC1=O [R-ketamine, (2R)-2-(2-chlorophenyl)-2-(methylamino)cyclohexan-1-one]
Hygroscopicity [1]: Not hygroscopic, no moisture uptake
Assay ([2]; Cyclodextrin (HPB) 0 %, pH 4.5): 88.9 mg/mL
Assay ([2]; Cyclodextrin (HPB) 0 %, pH 7.5): 0.9 mg/mL
Assay ([2]; Cyclodextrin (HPB) 10 %, pH 6): 26.8 mg/mL and 29.6 mg/mL
Assay [2, 17]: 93.9 mg/mL
Assay [2, 18]: 11.1 mg/mL
Tonicity ([3]; Cyclodextrin (HPB) 0 %, pH 4.5): 644 mOsmol
Tonicity ([3]; Cyclodextrin (HPB) 0 %, pH 7.5): 522 mOsmol
Tonicity ([3]; Cyclodextrin (HPB) 10 %, pH 6): 680 mOsmol and 683 mOsmol
Tonicity [3, 17]: 638 mOsmol
Tonicity [3, 18]: 546 mOsmol
Assay ([4]; Glycerol 20%, pH 6.0): 19.1 mg/mL
Assay ([4]; Glycerol 50%, pH 6.0): 20.2 mg/mL
Assay ([4]; PEG 20%, pH 6.0): 19.9 mg/mL
Assay ([4]; PEG 50%, pH 6.0): 21.6 mg/mL
Assay ([4]; Propylene glycol 20%, pH 6.0): 24.5 mg/mL
Assay ([4]; Propylene glycol 50%, pH 6.0): 46.5 mg/mL
Assay ([4]; Tween 5%, pH 5.0): 89.2 mg/mL
Assay ([4]; Tween 5%, pH 6.0): 18.8 mg/mL
Assay ([4]; Water for injection, pH 5.0, nominal 100 mg/ml (86.96 mg/ml free base)): 88.6 mg/mL
Assay ([4]; Water for injection, pH 6.0): 19.7 mg/mL
Tonicity ([5]; Glycerol 20%, pH 6.0): 1445 mOsmol
Tonicity ([5]; PEG 20%, pH 6.0): 695 mOsmol
Tonicity ([5]; Tween 5%, pH 5.0): 686 mOsmol
Tonicity ([5]; Tween 5%, pH 6.0): 602 mOsmol
Tonicity ([5]; Water for injection, pH 5.0): 651 mOsmol
Tonicity ([5]; Water for injection, pH 6.0): 568 mOsmol
Assay ([6]; 60 mg/ml (52.2 mg/ml free base) in 20 mM citrate buffer, pH 5.2): 46.2 mg/mL
Assay [6, 19]: 46.1 mg/mL
Assay [6, 20]: 46.4 mg/mL
Assay [6, 21]: 47.2 mg/mL
visual precipitation ([6]; 60 mg/ml in citrate buffer, pH 5.2-5.8): no precipitation could be detected visually
content found ([6]; 60 mg/ml in citrate buffer, range of pH 5.2-5.8): about 46.5 mg/ml
Assay [6, 22]: 46.2 mg/mL
precipitation after pH adjustment [6, 22]: precipitation was observed
Tonicity ([7]; 60 mg/ml in 20 mM citrate buffer, pH 5.2): 534 mOsmol/kg
Tonicity [7, 19]: 540 mOsmol/kg
Tonicity [7, 20]: 546 mOsmol/kg
Tonicity [7, 21]: 561 mOsmol/kg
Tonicity ([7]; 70 mg/ml in citrate buffer, pH 5.8): 556 mOsmol/kg
Assay [8, 23]: 51.2 mg/ml free base
Assay [8, 24]: 59.7 mg/ml free base
visible precipitation after pH adjustment and filtration ([8]; phosphate buffer pH 5.8, nominal 60 and 70 mg/ml): no visible precipitation
Tonicity [9, 23]: 476 mOsmol/kg
Tonicity [9, 24]: 545 mOsmol/kg
shelf life / precipitation on storage [10]: fine crystalline precipitate was observed; also recorded: precipitation
pH after dissolving ([11]; 60 mg/ml in 0.02 M maleic acid buffer adjusted to pH 5.75): 5.38
pH obtained ([11]; aqueous solution of 60 mg/ml R-ketamine without buffering): 4.65
precipitation on raising the pH to 5.8 ([11]; maleic acid buffer, pH raised to 5.8 with 0.15 M NaOH): without precipitation
pH from which the free base precipitates ([12]; in water, without suitable excipients, Henderson-Hasselbalch, FIG. 1): ≥ 5.5
pH above which precipitation of the free base occurs ([12]; observed in the experiments): > 5.9 and 5.7-5.9
API that can be dissolved ([12]; range between pH 5 and 6): 60 mg/mL
decrease of pH over the study, average [13]: 0.2 pH units
four-week stability assay [13]: satisfactory stability
pKa [14]: 7.5
logP [15]: 2.18
Solubility Classification (EP) ([16]; 1-propanol): Sparingly soluble
solubility ([16]; 1-propanol, organic solvent or mixture): 13 to 15 mg/mL (≈ 54.7 to 63.1 mM)
Solubility Classification (EP) ([16]; 2-propanol): Slightly soluble
solubility ([16]; 2-propanol, organic solvent or mixture): ~4 mg/mL (≈ 16.8 mM)
Solubility Classification (EP) ([16]; Acetone, acetonitrile, anisole, ethyl acetate, heptane, methyl ethyl ketone, methyl iso-butyl ketone, tetrahydrofuran, methyl tert-butyl ether): Very slightly soluble
Solubility Classification (EP) ([16]; DMSO, Ethanol): Sparingly soluble
solubility ([16]; DMSO, ethanol, organic solvent or mixture): 20 to 30 mg/mL (≈ 84.1 to 126 mM)
Solubility Classification (EP) ([16]; Methanol): Soluble
Solubility Classification (EP) ([16]; Water): Freely soluble
solubility ([16]; methanol, organic solvent or mixture): 50 to 100 mg/mL (≈ 210 to 421 mM)
solubility ([16]; organic solvent or mixture): < 1 mg/mL
solubility ([16]; water): > 140 mg/mL
solubility ([16]; water, pH 4, water): > 140 mg/mL
